Holding throughout (type): cell-based
In test [1] the test system is B16F10 cells (mouse melanoma [malignant melanoma] cells). As to the kind of experiment: in vitro antitumor activity test, B16F10 cells, XTT colorimetry. Conditions: B16-F10, cultured 72 hours. Here is the method: (§1) WiDr cells (human colon cancer cells) subcultured in a culture medium composed of a MEM medium added with 10% fetal bovine serum, 25 mM HEPES and 0.1 mg/ml kanamycin under the conditions of 37° C. and 5% carbon dioxide gas were made into single floating cells by treating with trypsin/EDTA, and a single cell suspension of 3×10^4 cells per 1 ml was prepared using the MEM medium (added with 10% fetal bovine serum, 25 mM HEPES and 0.1 mg/ml kanamycin). After dissolving the test compounds in DMSO, they were diluted in a RPMI 1640 medium (added with 10% fetal bovine serum, 25 mM HEPES and 0.1 mg/ml kanamycin) and prepared so that the concentrations were 2.0×10^−9 to 2.0×10^−4 M.
(§2) 0.1 ml of the cell suspension was placed into each well of 96-well microplates, cultured for 24 hours to allow the cells to adhere to the microplates, then 0.1 ml of the sample solutions were added, and cultured for 72 hours at 37° C. in 5% carbon dioxide gas.
(§3) Afterwards, the level of growth inhibition at various sample concentrations was obtained using XTT colorimetry, and concentrations at which growth was inhibited by 50% (GI50 values [μM]) were calculated.
(§4) In addition, cells other than WiDr cells that were used, and the condition for preparing each single cell suspension were as follows.
B16F10 cells (mouse melanoma [malignant melanoma] cells): 1×10^4 cells/ml
In general terms: Formazan colour is commonly taken as a measure of viable cells.

The test system of test [2] is P388 cells (mouse leukemia cells). Put plainly: in vitro antitumor activity test, P388 cells, XTT colorimetry. Conditions: cultured 72 hours. The method, then:
P388 cells (mouse leukemia cells) passaged in the abdominal cavity of DBA/2 mice were extracted with ascitic fluid, and cultured in a RPMI 1640 medium (added with 10% fetal bovine serum, 25 mM HEPES, 0.1 mg/ml kanamycin and 5 μM 2-hydroxyethyldisulfide) at 37° C. in 5% carbon dioxide gas. After culturing for 16 hours, floating P388 cells were made into a single cell suspension of 4×10^4 cells per 1 ml using the same RPMI 1640 medium as given above. The test substances were dissolved in DMSO, then diluted in a RPMI 1640 medium (added with 10% fetal bovine serum, 25 mM HEPES and 0.1 mg/ml kanamycin) and prepared so that the concentrations were 2.0×10^−9 to 2.0×10^−4 M.
0.1 ml of the cell suspension was placed into each well of 96-well microplates, then 0.1 ml of the sample solutions were added, and cultured for 72 hours at 37° C. in 5% carbon dioxide gas.
as §3

In test [3] the test system is WiDr cells (human colon cancer cells). As to the kind of experiment: in vitro antitumor activity test, WiDr cells, XTT colorimetry. Particulars: cultured 72 hours. The method, then: as §1, §2, §3
The test system of test [4] is PC-3 cells (human prostate cancer cells). As to the kind of experiment: in vitro antitumor activity test, PC-3 cells, XTT colorimetry. Conditions: PC-3 human prostate cancer cells, cultured 72 hours. The method, then: as §1, §2, §3, §4
PC-3 cells (human prostate cancer cells): 2×10^4 cells/ml

Test [5] deals with A549 cells (human lung cancer cells). As to the kind of experiment: in vitro antitumor activity test, A549 cells, XTT colorimetry. Particulars: cultured 72 hours. The method, then:
as §1, §2, §3, §4
A549 cells (human lung cancer cells): 2×10^4 cells/ml

Each structure is given as a SMILES string.

With `CCN(C)c1nc(SCc2ccc(OC)cc2)nc2c1ncn2C` [Compound 75, 6-(N-ethyl-N-methylamino)-2-(4-methoxybenzylsulfanyl)-9-methyl-9H-purine], the 50% growth inhibitory concentration (GI50) was determined as 380 nM in test [1]; 380 nM in test [2]; 380 nM in test [3]; 560 nM in test [4]; 520 nM in test [5].
`CCc1nc2c(N3CCOCC3)nc(SCc3ccc(OC)c(NC(C)=O)c3)nc2n1C` [Compound 27, 2-(3-acetylamino-4-methoxybenzylsulfanyl)-8-ethyl-9-methyl-6-morpholino-9H-purine]: the GI50 in test [1] came to 1340 nM; in test [2], 670 nM; in test [3], 920 nM; in test [4] it was 650 nM; in test [5], 580 nM.
For `CCn1c(C)nc2c(N3CCOCC3)nc(SCc3ccc(OC)cc3)nc21` [Compound 102, 9-ethyl-2-(4-methoxybenzylsulfanyl)-8-methyl-6-morpholino-9H-purine], in that order: 1420 nM, 720 nM, 920 nM, 830 nM and 830 nM.
The corresponding values for `CCOc1ccc(CSc2nc(N3CCOCC3)c3nc(CC)n(CC)c3n2)cc1N` [Compound 106, 2-(3-amino-4-ethoxybenzylsulfanyl)-8,9-diethyl-6-morpholino-9H-purine] are 300 nM, 200 nM, 290 nM, 950 nM and 140 nM.
Regarding `CN(C)c1nc(SCc2ccccc2)nc2[nH]cnc12` [Compound C, reference compound], the GI50 in test [1], in test [2], in test [3], in test [4] and in test [5] was greater than 10000 nM in each case.
`CCOc1ccc(CSc2nc(N3CCOCC3)c3ncn(C)c3n2)cc1` [Compound 99, 2-(4-ethoxybenzylsulfanyl)-9-methyl-6-morpholino-9H-purine]: the GI50 in test [1] was found to be 1980 nM; in test [2], 960 nM; in test [3], 1290 nM; in test [4], 5950 nM; in test [5], 1180 nM.
The corresponding values for `COc1ccc(CSc2nc(N3C=COCC3)c3ncn(C)c3n2)cc1N` [Compound 150, 2-(3-amino-4-methoxybenzylsulfanyl)-6-(2,3,-dihydro-[1,4]oxadin-4-yl)-9-methyl-9H-purine] are 300 nM, 110 nM, 780 nM, 150 nM and 150 nM.
The corresponding values for `CCc1nc2c(N3CCN(N=O)C(C)C3)nc(SCc3ccc(OC)cc3)nc2n1C` (stereo in doubt) [Compound 22, 8-ethyl-2-(4-methoxybenzylsulfanyl)-9-methyl-6-[(3S)-3-methyl-4-nitrosopiperazin-1-yl]-9H-purine] are 1610 nM, 950 nM, 1190 nM, 640 nM and 1250 nM.
The corresponding values for `CCc1nc2c(N3CCOCC3)nc(SCc3ccc(OC)cc3)nc2n1C` [Compound 1, 8-ethyl-2-(4-methoxybenzylsulfanyl)-9-methyl-6-morpholino-9H-purine] are 410 nM, 290 nM, 350 nM, 280 nM and 560 nM.
`COc1ccc(CSc2nc(-n3cccc3)c3ncn(C)c3n2)cc1` [Compound 109, 9-methyl-2-(4-methoxybenzylsulfanyl)-6-(1-pyrrolyl)-9H-purine]: the GI50 in test [1] worked out at 510 nM; in test [2], 320 nM; in test [3], 360 nM; in test [4], 580 nM; in test [5], 570 nM.

One may read the GI50 as the concentration at which growth is held to half of that of the control. A higher GI50 goes with lower sensitivity of the cells.

The record behind these values is patent publication US9132130B2, “Purine derivative and antitumor agent using same” (ZENYAKU KOGYO KABUSHIKI KAISHA, priority 2009, dated 2015).
